According to patent US20100137412A1 (priority 2008, published 2010):

Assays:
VSV-G pseudotypes = type: cell-based, vesicular stomatitis virus
[1] = system: H5HA and N1NA pseudotypes; type: cell-based, H5N1
[2] = system: HIV-1 envelope pseudotypes; type: cell-based
[3] = system: pseudotypes expressing H5HA and N1NA; type: cell-based, H5N1

## CCOC(=O)C1=C[C@@H](OC(CC)CC)[C@H](NC(C)=O)[C@@H](N)C1 [oseltamivir phosphate]
VSV-G pseudotypes
  effect on transduction efficiency: did not reduce
[1]
  effect on transduction efficiency: did not reduce
[2]
  effect on transduction efficiency: did not reduce
[3]
  effect on transduction efficiency: marked dose-dependent decrease
